{"source": "PubChem BioAssay (NCI)", "assay_in_all_cases": "growth of human tumour cells (NCI), 48 h", "key": {"786-0 renal": {"system": "786-0 renal"}, "A498 renal": {"system": "A498 renal"}, "ACHN renal": {"system": "ACHN renal"}, "BT-549 breast": {"system": "BT-549 breast"}, "CAKI-1 renal": {"system": "CAKI-1 renal"}, "CCRF-CEM leukemia": {"system": "CCRF-CEM leukemia"}, "COLO 205 colon": {"system": "COLO 205 colon"}, "DU-145 prostate": {"system": "DU-145 prostate"}, "EKVX NSCLC": {"system": "EKVX NSCLC"}, "HCC-2998 colon": {"system": "HCC-2998 colon"}, "HCT-116 colon": {"system": "HCT-116 colon"}, "HCT-15 colon": {"system": "HCT-15 colon"}, "HL-60(TB) leukemia": {"system": "HL-60(TB) leukemia"}, "HOP-62 NSCLC": {"system": "HOP-62 NSCLC"}, "HOP-92 NSCLC": {"system": "HOP-92 NSCLC"}, "HS 578T breast": {"system": "HS 578T breast"}, "HT29 colon": {"system": "HT29 colon"}, "IGROV1 ovarian": {"system": "IGROV1 ovarian"}, "K-562 leukemia": {"system": "K-562 leukemia"}, "KM12 colon": {"system": "KM12 colon"}, "MCF7 breast": {"system": "MCF7 breast"}, "MOLT-4 leukemia": {"system": "MOLT-4 leukemia"}, "NCI-H226 lung": {"system": "NCI-H226 lung"}, "NCI-H460 lung": {"system": "NCI-H460 lung"}, "NCI/ADR-RES ovarian": {"system": "NCI/ADR-RES ovarian"}, "OVCAR-3 ovarian": {"system": "OVCAR-3 ovarian"}, "OVCAR-4 ovarian": {"system": "OVCAR-4 ovarian"}, "OVCAR-5 ovarian": {"system": "OVCAR-5 ovarian"}, "RPMI-8226 leukemia": {"system": "RPMI-8226 leukemia"}, "RXF 393 renal": {"system": "RXF 393 renal"}, "SF-268 CNS": {"system": "SF-268 CNS"}, "SF-295 CNS": {"system": "SF-295 CNS"}, "SF-539 CNS": {"system": "SF-539 CNS"}, "SK-MEL-2 melanoma": {"system": "SK-MEL-2 melanoma"}, "SK-MEL-5 melanoma": {"system": "SK-MEL-5 melanoma"}, "SK-OV-3 ovarian": {"system": "SK-OV-3 ovarian"}, "SNB-19 CNS": {"system": "SNB-19 CNS"}, "SNB-75 CNS": {"system": "SNB-75 CNS"}, "SR leukemia": {"system": "SR leukemia"}, "SW-620 colon": {"system": "SW-620 colon"}, "T-47D breast": {"system": "T-47D breast"}, "U251 CNS": {"system": "U251 CNS"}, "UACC-257 melanoma": {"system": "UACC-257 melanoma"}, "UACC-62 melanoma": {"system": "UACC-62 melanoma"}, "UO-31 renal": {"system": "UO-31 renal"}}, "note": "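48-hour exposure; five concentrations; linearly interpolated endpoints. GI50 = concentration required for 50% inhibition of growth. TGI is the concentration that stops growth completely.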"}
{"molecule": "Fc1ccc(-c2cc3nc(C(Cl)Cl)nc(-c4ccc(F)cc4)n3n2)cc1", "values": [{"measurement": "GI50", "setting": "786-0 renal", "result": 16.9, "unit": "µM"}, {"measurement": "TGI", "setting": "786-0 renal", "result": "> 100", "unit": "µM"}, {"measurement": "GI50", "setting": "A498 renal", "result": 1650, "unit": "nM"}, {"measurement": "TGI", "setting": "A498 renal", "result": 3.44, "unit": "µM"}, {"measurement": "GI50", "setting": "ACHN renal", "result": 676, "unit": "nM"}, {"measurement": "TGI", "setting": "ACHN renal", "result": 4.16, "unit": "µM"}, {"measurement": "GI50", "setting": "BT-549 breast", "result": 2430, "unit": "nM"}, {"measurement": "TGI", "setting": "BT-549 breast", "result": 42.8, "unit": "µM"}, {"measurement": "GI50", "setting": "CAKI-1 renal", "result": 1890, "unit": "nM"}, {"measurement": "TGI", "setting": "CAKI-1 renal", "result": 6.74, "unit": "µM"}, {"measurement": "GI50", "setting": "CCRF-CEM leukemia", "result": 4.21, "unit": "µM"}, {"measurement": "TGI", "setting": "CCRF-CEM leukemia", "result": "> 100", "unit": "µM"}, {"measurement": "GI50", "setting": "COLO 205 colon", "result": 1150, "unit": "nM"}, {"measurement": "TGI", "setting": "COLO 205 colon", "result": 2520, "unit": "nM"}, {"measurement": "GI50", "setting": "DU-145 prostate", "result": 443, "unit": "nM"}, {"measurement": "TGI", "setting": "DU-145 prostate", "result": 2970, "unit": "nM"}, {"measurement": "GI50", "setting": "EKVX NSCLC", "result": 1680, "unit": "nM"}, {"measurement": "TGI", "setting": "EKVX NSCLC", "result": 4.37, "unit": "µM"}, {"measurement": "GI50", "setting": "HCC-2998 colon", "result": 1010, "unit": "nM"}, {"measurement": "TGI", "setting": "HCC-2998 colon", "result": 2350, "unit": "nM"}, {"measurement": "GI50", "setting": "HCT-116 colon", "result": 637, "unit": "nM"}, {"measurement": "TGI", "setting": "HCT-116 colon", "result": 6.3, "unit": "µM"}, {"measurement": "GI50", "setting": "HCT-15 colon", "result": 1110, "unit": "nM"}, {"measurement": "TGI", "setting": "HCT-15 colon", "result": 6.16, "unit": "µM"}, {"measurement": "GI50", "setting": "HL-60(TB) leukemia", "result": 690, "unit": "nM"}, {"measurement": "GI50", "setting": "HOP-62 NSCLC", "result": 1500, "unit": "nM"}, {"measurement": "TGI", "setting": "HOP-62 NSCLC", "result": 4.26, "unit": "µM"}, {"measurement": "GI50", "setting": "HOP-92 NSCLC", "result": 2600, "unit": "nM"}, {"measurement": "TGI", "setting": "HOP-92 NSCLC", "result": 9.69, "unit": "µM"}, {"measurement": "GI50", "setting": "HS 578T breast", "result": 4.14, "unit": "µM"}, {"measurement": "TGI", "setting": "HS 578T breast", "result": "> 100", "unit": "µM"}, {"measurement": "GI50", "setting": "HT29 colon", "result": 746, "unit": "nM"}, {"measurement": "TGI", "setting": "HT29 colon", "result": 3.85, "unit": "µM"}, {"measurement": "GI50", "setting": "IGROV1 ovarian", "result": 3.99, "unit": "µM"}, {"measurement": "TGI", "setting": "IGROV1 ovarian", "result": "> 100", "unit": "µM"}, {"measurement": "GI50", "setting": "K-562 leukemia", "result": 2300, "unit": "nM"}, {"measurement": "TGI", "setting": "K-562 leukemia", "result": "> 100", "unit": "µM"}, {"measurement": "GI50", "setting": "KM12 colon", "result": 1730, "unit": "nM"}, {"measurement": "TGI", "setting": "KM12 colon", "result": 5.22, "unit": "µM"}, {"measurement": "GI50", "setting": "MCF7 breast", "result": 1210, "unit": "nM"}, {"measurement": "TGI", "setting": "MCF7 breast", "result": "> 100", "unit": "µM"}, {"measurement": "GI50", "setting": "MOLT-4 leukemia", "result": 1800, "unit": "nM"}, {"measurement": "TGI", "setting": "MOLT-4 leukemia", "result": 9.61, "unit": "µM"}, {"measurement": "GI50", "setting": "NCI-H226 lung", "result": 6.14, "unit": "µM"}, {"measurement": "TGI", "setting": "NCI-H226 lung", "result": "> 100", "unit": "µM"}, {"measurement": "GI50", "setting": "NCI-H460 lung", "result": 591, "unit": "nM"}, {"measurement": "TGI", "setting": "NCI-H460 lung", "result": 3.17, "unit": "µM"}, {"measurement": "GI50", "setting": "NCI/ADR-RES ovarian", "result": 1260, "unit": "nM"}, {"measurement": "TGI", "setting": "NCI/ADR-RES ovarian", "result": 5.84, "unit": "µM"}, {"measurement": "GI50", "setting": "OVCAR-3 ovarian", "result": 1540, "unit": "nM"}, {"measurement": "TGI", "setting": "OVCAR-3 ovarian", "result": 3.51, "unit": "µM"}, {"measurement": "GI50", "setting": "OVCAR-4 ovarian", "result": 1820, "unit": "nM"}, {"measurement": "TGI", "setting": "OVCAR-4 ovarian", "result": 5.75, "unit": "µM"}, {"measurement": "GI50", "setting": "OVCAR-5 ovarian", "result": 2270, "unit": "nM"}, {"measurement": "TGI", "setting": "OVCAR-5 ovarian", "result": 7.29, "unit": "µM"}, {"measurement": "GI50", "setting": "RPMI-8226 leukemia", "result": 2660, "unit": "nM"}, {"measurement": "TGI", "setting": "RPMI-8226 leukemia", "result": "> 100", "unit": "µM"}, {"measurement": "GI50", "setting": "RXF 393 renal", "result": 1100, "unit": "nM"}, {"measurement": "TGI", "setting": "RXF 393 renal", "result": 2430, "unit": "nM"}, {"measurement": "GI50", "setting": "SF-268 CNS", "result": 2480, "unit": "nM"}, {"measurement": "TGI", "setting": "SF-268 CNS", "result": "> 100", "unit": "µM"}, {"measurement": "GI50", "setting": "SF-295 CNS", "result": 2170, "unit": "nM"}, {"measurement": "TGI", "setting": "SF-295 CNS", "result": 5.78, "unit": "µM"}, {"measurement": "GI50", "setting": "SF-539 CNS", "result": 3.56, "unit": "µM"}, {"measurement": "TGI", "setting": "SF-539 CNS", "result": "> 100", "unit": "µM"}, {"measurement": "GI50", "setting": "SK-MEL-2 melanoma", "result": "> 100", "unit": "µM"}, {"measurement": "TGI", "setting": "SK-MEL-2 melanoma", "result": "> 100", "unit": "µM"}, {"measurement": "GI50", "setting": "SK-MEL-5 melanoma", "result": "> 100", "unit": "µM"}, {"measurement": "TGI", "setting": "SK-MEL-5 melanoma", "result": "> 100", "unit": "µM"}, {"measurement": "GI50", "setting": "SK-OV-3 ovarian", "result": 2360, "unit": "nM"}, {"measurement": "TGI", "setting": "SK-OV-3 ovarian", "result": 6.34, "unit": "µM"}, {"measurement": "GI50", "setting": "SNB-19 CNS", "result": 1650, "unit": "nM"}, {"measurement": "TGI", "setting": "SNB-19 CNS", "result": 6.88, "unit": "µM"}, {"measurement": "GI50", "setting": "SNB-75 CNS", "result": 64.9, "unit": "µM"}, {"measurement": "TGI", "setting": "SNB-75 CNS", "result": "> 100", "unit": "µM"}, {"measurement": "GI50", "setting": "SR leukemia", "result": 1400, "unit": "nM"}, {"measurement": "TGI", "setting": "SR leukemia", "result": "> 100", "unit": "µM"}, {"measurement": "GI50", "setting": "SW-620 colon", "result": 1110, "unit": "nM"}, {"measurement": "TGI", "setting": "SW-620 colon", "result": 6.85, "unit": "µM"}, {"measurement": "GI50", "setting": "T-47D breast", "result": 2620, "unit": "nM"}, {"measurement": "TGI", "setting": "T-47D breast", "result": "> 100", "unit": "µM"}, {"measurement": "GI50", "setting": "U251 CNS", "result": 1220, "unit": "nM"}, {"measurement": "TGI", "setting": "U251 CNS", "result": 5.27, "unit": "µM"}, {"measurement": "GI50", "setting": "UACC-257 melanoma", "result": 2260, "unit": "nM"}, {"measurement": "TGI", "setting": "UACC-257 melanoma", "result": 4.91, "unit": "µM"}, {"measurement": "GI50", "setting": "UACC-62 melanoma", "result": 3.21, "unit": "µM"}, {"measurement": "TGI", "setting": "UACC-62 melanoma", "result": "> 100", "unit": "µM"}, {"measurement": "GI50", "setting": "UO-31 renal", "result": 3.1, "unit": "µM"}, {"measurement": "TGI", "setting": "UO-31 renal", "result": "> 100", "unit": "µM"}]}
